Assay results as given in article PMC4775281 (Structure (London, England : 1993), 2016).

Molecular target: catalytic subunit of the cAMP-dependent protein kinase A (PKA-C) (Mus musculus, UniProt P05132)
Test: isothermal titration calorimetry
Type: binding

Nc1ncnc2c1ncn2[C@@H]1O[C@H](COP(=O)(O)O)[C@@H](O)[C@H]1O [AMP]
Kd: ~250 µM
